Measurements taken from ChEMBL document CHEMBL1149978, “Synthesis of adamantane spiro sultones as potential antiviral agents” (Bioorg Med Chem Lett, 1992).
The source made the active and inactive calls.

Legend:
[1] = test system: Human immunodeficiency virus 2; assay: Antiviral activity against human immunodeficiency virus type 2 (HIV-2) at concentrations up to 200 ug/mL; NA means Inactive; type: functional, organism-based
[2] = test system: Human immunodeficiency virus 1; assay: Antiviral activity against human immunodeficiency virus type 1 (HIV-1) at concentrations up to 200 ug/mL; NA means Inactive; type: functional, organism-based
[3] = Antiviral activity against measles at concentrations up to 200 ug/mL; NA means Inactive; type: functional
Influenza A virus = assay: Antiviral activity against influenza-A at concentrations up to 200 ug/mL; NA means Inactive; type: functional, organism-based
Influenza B virus = assay: Antiviral activity against influenza-B at concentrations up to 200 ug/mL; NA means Inactive; type: functional, organism-based
[4] = Antiviral activity against respiratory syncytial at concentrations up to 200 ug/mL; NA means Inactive; type: functional
Human respirovirus 3 = assay: Antiviral activity against parainfluenza-3 at concentrations up to 200 ug/mL; NA means Inactive; type: functional, organism-based

Measured: Activity

O=C1CS(=O)(=O)OC12C1CC3CC(C1)CC2C3 (configuration not stated)
inactive: all assays above

NC1=CS(=O)(=O)OC12C1CC3CC(C1)CC2C3 (configuration not stated)
not listed: [3] | [4]
inactive: all other assays above
